Results: patent US20040157785A1, “Combination therapy comprising anti-diabetic and anticonvulsant agents” (priority 2000, published 2004)
Like-named read-outs stand apart in the source and are kept apart here.

Assays:
[1] = test system: seizures; details: several rodent models of epilepsy; cited from earlier work
[2] = test system: seizures; details: animal model of kindled epilepsy; cited from earlier work
[3] = test system: patient with Type II diabetes; assay: Case Study B: topiramate added to Glucotrol (glipizide) in a Type II diabetes patient; format: in vivo, human
Description: The ability of the compounds of formula I administered in combination with an anti-diabetic agent to treat Type II diabetes mellitus and Syndrome X is based on the following case studies. The patient was a person with a 5 year history of Type II diabetes. At the start of treatment, patient was taking 40 mg/day Glucotrol (glipizide, a sulfonylurea) and weighed 293 lbs. The patient was titrated on topiramate to 50 mg/day. After 1 month of treatment, patient reported that home measured blood sugars had dropped from a baseline of 300 mg/dl to measured blood sugars of 140 mg/dl. After 2 months, the patient indicated average blood sugar levels of 80-140 mg/dl and weight loss to 272 lbs.

[4] = test system: markers of diabetes mellitus; assay: Summary of the case studies: topiramate in combination with an anti-diabetic agent; format: in vivo, human; details: oral administration in combination with an anti-diabetic agent
[5] = test system: patient with Type II diabetes; assay: Case Study A: topiramate added to insulin (70/30) in a Type II diabetes patient; format: in vivo, human
Description: The ability of the compounds of formula I administered in combination with an anti-diabetic agent to treat Type II diabetes mellitus and Syndrome X is based on the following case studies. The patient was a person with a 6 year history of Type II diabetes. For the past four years the patient was being treated with insulin (70/30). At the start of treatment patient's weight was 236 lbs, measured cholesterol was 316 mg/dl and measured glucose was 166 mg/dl. The patient was started on Topiramate for treatment of seizures and titrated to 75 mg a day. […] After 16 months, patient's fasting glucose was 89 mg/dl.

[6] = test system: patient with elevated blood sugars; assay: Case Study D: topiramate with Amaryl (glimepiride) in a patient with elevated blood sugars; format: in vivo, human
Description: The ability of the compounds of formula I administered in combination with an anti-diabetic agent to treat Type II diabetes mellitus and Syndrome X is based on the following case studies. The patient was a person, with a history of elevated blood sugars and a weight of 188 lbs. At the time of initial treatment, patient's blood sugar was 426 mg/dl. Patient was started on topiramate, titrated to 100 mg once a day. The patient was also prescribed […] (glimepiride). After 3 months, patient's blood sugar averaged in the upper 100s, lab sugars measured at 138 mg/dl, cholesterol at 278 mg/dl, triglycerides at 212 mg/dl and HgbA1C at 6.7%. […] Patient weighed 160 lbs. Patient was able to stop taking the […] due to improved sugar control. Due to concerns about weight loss, topiramate was decreased to 100 mg/day. After 21 months, patient's weight was 170 lbs, blood sugars were reported doing well. Lab measured glucose was 115 mg/dl, cholesterol was measured at 236 mg/dl, triglycerides at 106 mg/dl and HgbA1C at 5.7%.

[7] = test system: simple and complex partial seizures and secondarily generalized seizures; details: adjunctive therapy or monotherapy; cited from earlier work
[8] = test system: patient with diabetes; assay: Case Study C: topiramate added to Glucophage, DiaBeta and Rezulin in a diabetes patient; format: in vivo, human
Description: The ability of the compounds of formula I administered in combination with an anti-diabetic agent to treat Type II diabetes mellitus and Syndrome X is based on the following case studies. The patient was a person with an 8 year history of diabetes. Prior to treatment, patient's weight was 201 lbs, Hgb A1C was 9.3% and blood sugar was 309 mg/dl. Patient was taking Glucophage (metformin hydrochloride) at four 500 mg tablets/day (2 tablets in the morning, 1 tablet in the afternoon and 1 tablett at night, for a total of 2000 mg/day), DiaBeta (glyburide) at 10 mg twice a day (total of 20 mg/day) and Rezulin (troglitazone) at 200 mg/day. Patient was started on topiramate at 75 mg b.i.d (150 mg/day). […] After 15 months patient's weight was 190 lbs with blood sugars controlled on 100 mg topiramate in the morning, 200 mg topiramate at night (Total of 300 mg/day), DiaBeta at 10 mg twice a day and Rezulin at 200 mg once a day.

[9] = after 3 months, topiramate 100 mg once a day with Amaryl
[10] = after 3 months, topiramate 100 mg once a day with Amaryl, initial 426 mg/dl
[11] = after 21 months, topiramate 100 mg/day, Amaryl stopped
[12] = after one year, topiramate increased to 200 mg/day

CC1(C)O[C@@H]2[C@@H](CO[C@@]3(COS(N)(=O)=O)OC(C)(C)O[C@@H]23)O1 [topiramate, 2,3:4,5-bis-O-(1-methylethylidene)-β-D-fructopyranose sulfamate]
seizure block [1]: effectively block seizures
seizure block [2]: effectively block seizures
home measured blood sugars ([3]; after 1 month, topiramate 50 mg/day with Glucotrol 40 mg/day, baseline 300 mg/dl): 140 mg/dL
average blood sugar levels ([3]; after 2 months, topiramate 50 mg/day with Glucotrol 40 mg/day): 80 to 140 mg/dL
weight ([3]; after 2 months, topiramate 50 mg/day with Glucotrol, start 293 lbs): 272 lbs
status of markers of diabetes mellitus (blood glucose, glycosylated hemoglobin, triglyceride levels) [4]: consistently improved
blood sugar (patient indicated) ([5]; after 2 months, topiramate 75 mg a day with insulin (70/30), using the insulin less often): improved significantly
fasting glucose ([5]; after 16 months, with insulin (70/30), glucose at start 166 mg/dl): 89 mg/dL
home measured blood sugars ([5]; after 18 months, with insulin (70/30), previously 150 to 160 mg/dl): less than 120 mg/dl
Hbg A1C ([5]; after one year, topiramate 200 mg b.i.d. with insulin (70/30)): 6.94%
patient's weight ([5]; after one year, topiramate 200 mg b.i.d. with insulin (70/30), start 236 lbs): 225 lbs
HgbA1C [6, 9]: 6.7%
cholesterol [6, 9]: 278 mg/dL
triglycerides [6, 9]: 212 mg/dL
blood sugar averaged [6, 10]: upper 100s
lab sugars [6, 10]: 138 mg/dL
HgbA1C [6, 11]: 5.7%
blood sugars (reported) [6, 11]: doing well
cholesterol [6, 11]: 236 mg/dL
lab measured glucose [6, 11]: 115 mg/dL
patient's weight [6, 11]: 170 lbs
triglycerides [6, 11]: 106 mg/dL
need for Amaryl (sugar control) ([6]; after one year, topiramate 200 mg/day): able to stop taking the Amaryl
patient weight ([6]; after one year, topiramate 200 mg/day, start 188 lbs): 160 lbs
cholesterol [6, 12]: 200 mg/dL
lab measured blood sugars [6, 12]: 141 mg/dL
triglycerides [6, 12]: 500 mg/dL
efficacy in treating simple and complex partial seizures and secondarily generalized seizures [7]: effective
patient's weight ([8]; after 15 months, topiramate 300 mg/day with DiaBeta and Rezulin, prior 201 lbs): 190 lbs
blood sugars ([8]; after 15 months, topiramate 300 mg/day, DiaBeta 10 mg twice a day, Rezulin 200 mg once a day): controlled
blood sugars (patient indicated) ([8]; topiramate 75 mg b.i.d (150 mg/day) with Glucophage, DiaBeta, Rezulin, prior blood sugar 309 mg/dl): doing better
need for Glucophage (sugar control) ([8]; topiramate 150 mg b.i.d (300 mg/day) with DiaBeta and Rezulin): able to stop Glucophage
